From patent US20250325534A1, “MICROBIOCIDAL TETRAHYDROISOQUINOLINE DERIVATIVES” (SYNGENTA CROP PROTECTION AG, priority 2021, published 2025)

Assays:
Alternaria solani = Alternaria solani / tomato / leaf disc (early blight); assay type: in vivo; details: foliar, inoculated 2 days after application, vs untreated control
Botryotinia fuckeliana = Botryotinia fuckeliana (Botrytis cinerea) / liquid culture (gray mould); assay type: cell-based; details: 72 h, growth inhibition photometrically 3-4 days after application, read-out: control of Botryotinia fuckeliana
Outline: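 Botrytis cinerea conidia in Vogels nutrient broth added to test compound delivered in DMSO. Incubated at 24 °C; growth inhibition measured photometrically 3–4 days after application.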

Glomerella lagenarium = Glomerella lagenarium (Colletotrichum lagenarium) / liquid culture (anthracnose); assay type: cell-based; details: Colletotrichum orbiculare, 72 h, photometrically 3-4 days after application, read-out: control of Glomerella lagenarium
Outline: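 Conidia in potato dextrose broth added to test compound delivered as DMSO solution in microtiter plates; incubation at 24° C. Growth inhibition read photometrically 3-4 days after application.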

Phaeosphaeria nodorum = Phaeosphaeria nodorum (Septoria nodorum) / wheat / leaf disc preventative (glume blotch); assay type: in vivo; details: Parastagonospora nodorum, foliar, inoculated 2 days after application
Outline: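 Wheat leaf discs (cv. Kanzler) on agar were sprayed with formulated compound diluted in water, then inoculated with spores 2 days later. Incubation was at 20 °C and 75% relative humidity under 12 h light/12 h dark. Percent disease control versus untreated was scored 5–7 days after application.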

Monographella nivalis = Monographella nivalis (Microdochium nivale) / liquid culture (foot rot cereals); assay type: cell-based; details: 96 h, photometrically 4-5 days after application, read-out: control of Monographella nivalis
Outline: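 Microdochium nivale conidia in potato dextrose broth were added to test compound in DMSO and incubated at 24° C. Growth inhibition was measured photometrically 4-5 days after application.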

Mycosphaerella arachidis = Mycosphaerella arachidis (Cercospora arachidicola) / liquid culture (early leaf spot); assay type: cell-based; details: 96 h, photometrically 4-5 days after application, read-out: control of Mycosphaerella arachidis
Outline: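 Cryostored M. arachidis conidia in potato dextrose broth were added to compound applied as DMSO solution. Incubated at 24 °C; growth inhibition measured photometrically 4-5 days after application.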

Pyrenophora teres = Pyrenophora teres / barley / leaf disc preventative (net blotch); assay type: in vivo; details: foliar, inoculated 2 days after application
Outline: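 Barley cv. Hasso leaf segments on agar sprayed with formulated compound in water, then inoculated with spore suspension 2 days later. Incubated at 20° C., 65% RH, 12 h light/12 h dark; disease control versus untreated assessed 5-7 days after application.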

[1] = tested on: Mycosphaerella graminicola; assay: Mycosphaerella graminicola (Septoria tritici) / liquid culture (Septoria blotch); assay type: cell-based; details: Zymoseptoria tritici, 96 h, photometrically 4-5 days after application, read-out: control of Mycosphaerella graminicola
Outline: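 Conidia from cryogenic storage mixed into potato dextrose broth, added to test compound in DMSO. Plates incubated at 24° C; growth inhibition read photometrically 4-5 days after application.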

fungi = assay: Fungicidal activity of separated stereoisomers compared (test not specified); details: comparison of SFC-separated isomers; test and fungus not given
Sclerotinia sclerotiorum = Sclerotinia sclerotiorum / liquid culture (cottony rot); assay type: cell-based; details: 72 h, photometrically 3-4 days after application, read-out: control of Sclerotinia sclerotiorum
Protocol: Example B18: Sclerotinia sclerotiorum/Liquid Culture (Cottony Rot) Mycelia fragments of a newly grown liquid culture of the fungus are directly mixed into a nutrient broth (potato dextrose broth). After placing a DMSO solution of test compound into a microtiter plate (96-well format) the nutrient broth containing the fungal material is added. The test plates are incubated at 24° C. and the inhibition of growth is determined photometrically 3-4 days after application.

Fusarium culmorum = assay: microbe, parasite or virus in culture; assay type: cell-based; details: 72 h, read-out: control of Fusarium culmorum
[2] = tested on: Blumeria graminis f. sp. tritici; assay: Blumeria graminis f. sp. tritici / wheat / leaf disc preventative (powdery mildew); assay type: in vivo; details: foliar, inoculated 1 day after application
Protocol: Example B7: Blumeria graminis f. Sp. Tritici (Erysiphe graminis f. Sp. Tritici)/Wheat/Leaf Disc Preventative (Powdery Mildew on Wheat) Wheat leaf segments cv. Kanzler are placed on agar in a multiwell plate (24-well format) and sprayed with the formulated test compound diluted in water. The leaf disks are inoculated by shaking powdery mildew infected plants above the test plates 1 day after application. The inoculated leaf disks are incubated at 20° C. and 60% relative humidity under a light regime of 24 h darkness followed by 12 h light/12 h darkness in a climate chamber and the activity of a compound is assessed as percent disease control compared to untreated when an appropriate level of disease damage appears on untreated check leaf segments (6-8 days after application).

Row | SMILES | pest or weed control at 200 ppm (Alternaria solani) [%] | inhibition of growth at 20 ppm (Botryotinia fuckeliana) [%] | inhibition of growth at 20 ppm (Glomerella lagenarium) [%] | pest or weed control at 200 ppm (Phaeosphaeria nodorum) [%] | inhibition of growth at 20 ppm (Monographella nivalis) [%] | inhibition of growth at 20 ppm (Mycosphaerella arachidis) [%] | pest or weed control at 200 ppm (Pyrenophora teres) [%] | inhibition of growth at 20 ppm [1] [%] | fungicidal activity relative to its stereoisomer (fungi) | inhibition of growth at 20 ppm (Sclerotinia sclerotiorum) [%] | inhibition of growth at 20 ppm (Fusarium culmorum) [%] | pest or weed control at 200 ppm [2] [%]
1 | C[C@H]1c2ccccc2[C@@](C)(c2cnn(C)c2)CN1C(=O)c1cc(-c2ccc(F)cc2F)on1 (single isomer, unassigned) [Compound P-6] | ≥ 80 | ≥ 80 | ≥ 80 | ≥ 80 | ≥ 80 | ≥ 80 | ≥ 80 | ≥ 80 | more fungicidally active than the compound of peak 3 |  |  | 
2 | C[C@@H]1c2ccccc2[C@@](C)(c2cnn(C)c2)CN1C(=O)c1cc(-c2ccc(F)cc2F)on1 (single isomer, unassigned) [Compound P-9] |  |  |  |  | ≥ 80 |  |  | ≥ 80 | more fungicidally active than the compound of peak 2 |  |  | 
3 | Cn1cc([C@@]2(C)CN(C(=O)c3cc(-c4ccc(F)cc4F)on3)Cc3ccccc32)cn1 (single isomer, unassigned) [Compound P-48] | ≥ 80 | ≥ 80 | ≥ 80 | ≥ 80 | ≥ 80 | ≥ 80 | ≥ 80 | ≥ 80 | more fungicidally active than the (R) isomer | ≥ 80 |  | 
4 | Cc1c(C2CN(C(=O)c3cc(-c4ccc(F)cc4F)on3)Cc3ccccc32)cnn1C (single isomer, unassigned) [Compound P-223, [5-(2,4-difluorophenyl)isoxazol-3-yl]-[4-(1,5-dimethylpyrazol-4-yl)-3,4-dihydro-1H-isoquinolin-2-yl]methanone] |  | ≥ 80 | ≥ 80 |  | ≥ 80 | ≥ 80 |  | ≥ 80 |  | ≥ 80 | ≥ 80 | 
5 | Cc1c(C2CN(C(=O)c3nnc(-c4ccc(F)cc4F)s3)Cc3ccccc32)cnn1C (stereo not drawn) [Compound P-65, [5-(2,4-difluorophenyl)-1,3,4-thiadiazol-2-yl]-[4-(1,5-dimethylpyrazol-4-yl)-3,4-dihydro-1H-isoquinolin-2-yl]methanone] | ≥ 80 | ≥ 80 | ≥ 80 | ≥ 80 | ≥ 80 | ≥ 80 | ≥ 80 | ≥ 80 |  | ≥ 80 | ≥ 80 | ≥ 80
6 | Cc1c(C2CN(C(=O)c3cc(-c4ccc(F)cc4F)no3)Cc3ccccc32)cnn1C (stereo not drawn) [Compound P-108, [3-(2,4-difluorophenyl)isoxazol-5-yl]-[4-(1,5-dimethylpyrazol-4-yl)-3,4-dihydro-1H-isoquinolin-2-yl]methanone] | ≥ 80 | ≥ 80 | ≥ 80 | ≥ 80 | ≥ 80 | ≥ 80 | ≥ 80 | ≥ 80 |  |  | ≥ 80 | ≥ 80
7 | Cn1ncc(C2CN(C(=O)c3nnc(-c4ccc(F)cc4F)s3)Cc3ccccc32)c1Cl (stereo not drawn) [Compound P-212, [4-(5-chloro-1-methyl-pyrazol-4-yl)-3,4-dihydro-1H-isoquinolin-2-yl]-[5-(2,4-difluorophenyl)-1,3,4-thiadiazol-2-yl]methanone] |  | ≥ 80 | ≥ 80 |  | ≥ 80 | ≥ 80 |  | ≥ 80 |  | ≥ 80 | ≥ 80 | 
